Assay results: paper PMC8901636, “Preclinical studies of Flonoltinib Maleate, a novel JAK2/FLT3 inhibitor, in treatment of JAK2^V617F-induced myeloproliferative neoplasms” (Blood Cancer Journal, 2022)
Like-named read-outs stand apart in the source and are kept apart here.

How the values were obtained:
JAK1/TYK2 pathway = experiment: Cytokine-stimulated cell-based assay, IFN-α-induced p-STAT1; conditions: western blotting
JAK1/JAK2 [1] = experiment: Cytokine-stimulated cell-based assay, IFN-γ-induced p-STAT1 in U2OS cells; conditions: Homo sapiens
JAK1/JAK2 [2] = experiment: Cytokine-stimulated cell-based assay, G-CSF-induced p-STAT3 in HEL cells; conditions: Homo sapiens
Text: To further determine the selectivity of FM to inhibit different JAK isotypes in cell lines, we performed a series of cytokine-stimulated cell-based assays and assessed the signal transduction of JAK subtypes.
(A) Inhibition of cytokine induced JAK auto-phosphorylation by FM in HEL cell lines. Raw data about HEL (B) and Ba/F3-JAK2^V617F (C) cells were supplemented with different concentrations of FM for cell cycle analysis. […] (F) p-FLT3, p-STAT5, and p-ERK in Molm-13 cell line were also assessed after 3 hours exposure with increasing concentrations of FM.

Ba/F3-JAK2^V617F = experiment: MTT assay for cell proliferation; format: cell-based, Murine; conditions: Mus musculus, 72 h, read-out: IC50(μM) ± SD, tumor cell proliferation
Procedure: (§1) For in vitro inhibition assays, cells were seeded in 96-well culture plates with a density of 15,000–20,000 cells/well after the cells reached 70–90% confluence. […] MTT (3-(4, 5-dimethylthiazol-2-yl)-2, 5-diphenyltetrazolium bromide) (Cat. No. 1334GR001; BioFroxx) assay was conducted in order to examine viability. The IC50 values were fitted using GraphPad Prism 7.0.

Molm-13 = experiment: MTT assay for cell proliferation; format: cell-based; conditions: Homo sapiens, MOLM-13, 72 h, read-out: IC50(μM) ± SD, tumor cell proliferation
Procedure: as §1

[3] = PK and tissue distribution after repeated oral administration in Ba/F3-EPOR-JAK2^V617F tumor-bearing mice; format: in vivo; conditions: BALB/c nude, mouse, oral, 30 mg/kg, repeated
[4] = brain, read-out: FM concentration, Brain
[5] = heart, read-out: FM concentration, Heart
[6] = intestine, read-out: FM concentration, Intestine
[7] = kidney, read-out: FM concentration, Kidney
[8] = liver, read-out: FM concentration, Liver
[9] = lung, read-out: FM concentration, Lung
[10] = muscle, read-out: FM concentration, Muscle
[11] = plasma, read-out: FM concentration, Plasma

For `Cc1cnc(Nc2ccc(N3CCC(N(C)CCO)CC3)c(F)c2)nc1-c1cnn(C(C)C)c1` [FM, 2-((1-(2-fluoro-4-((4-(1-isopropyl-1H-pyrazol-4-yl)-5-methylpyrimidin-2-yl)amino)phenyl)piperidin-4-yl)(methyl)amino)ethan-1-ol], the IC50 (JAK1/TYK2 pathway) was over 5000 nM, the IC50 (JAK1/JAK2 [1]) was 390 nM and the IC50 (JAK1/JAK2 [2]) was 460 nM. It also gave an IC50 (Ba/F3-JAK2^V617F) of 0.2 ± 0.01 µM, an IC50 (Molm-13) of 0.06 ± 0.03 µM and a concentration at 0 h [3, 4] of 6.3 ± 3.68 ng/g. It also gave a concentration at 0.5 h [3, 4] of 283 ± 93.8 ng/g, a concentration at 2 h [3, 4] of 369 ± 113 ng/g and a concentration at 4 h [3, 4] of 492 ± 754 ng/g. For the same compound, the concentration at 8 h [3, 4] was 47 ± 31.3 ng/g, the concentration at 12 h [3, 4] was 10.8 ± 4.65 ng/g and the concentration at 0 h [3, 5] was 7.06 ± 1.49 ng/g. The concentration at 0.5 h [3, 5] was 1890 ± 756 ng/g, the concentration at 2 h [3, 5] was 1320 ± 674 ng/g and the concentration at 4 h [3, 5] was 578 ± 356 ng/g. It also gave a concentration at 8 h [3, 5] of 357 ± 376 ng/g, a concentration at 12 h [3, 5] of 15.8 ± 11.3 ng/g and a concentration at 0 h [3, 6] of 21.4 ± 19.1 ng/g. For the same compound, the concentration at 0.5 h [3, 6] was 31200 ± 12600 ng/g, the concentration at 2 h [3, 6] was 4210 ± 1320 ng/g and the concentration at 4 h [3, 6] was 9610 ± 6020 ng/g. For the same compound, the concentration at 8 h [3, 6] was 1380 ± 1370 ng/g, the concentration at 12 h [3, 6] was 250 ± 337 ng/g and the concentration at 0 h [3, 7] was 16.6 ± 1.41 ng/g. It also gave a concentration at 0.5 h [3, 7] of 11800 ± 3010 ng/g, a concentration at 2 h [3, 7] of 7560 ± 1990 ng/g and a concentration at 4 h [3, 7] of 4640 ± 1860 ng/g. The concentration at 8 h [3, 7] was 1790 ± 1450 ng/g, the concentration at 12 h [3, 7] was 174 ± 121 ng/g and the concentration at 0 h [3, 8] was 12.9 ± 3.13 ng/g. The concentration at 0.5 h [3, 8] was 4360 ± 3900 ng/g, the concentration at 2 h [3, 8] was 6420 ± 1260 ng/g and the concentration at 4 h [3, 8] was 6660 ± 5810 ng/g. For the same compound, the concentration at 8 h [3, 8] was 1900 ± 1330 ng/g, the concentration at 12 h [3, 8] was 151 ± 116 ng/g and the concentration at 0 h [3, 9] was 18.5 ± 4 ng/g. It also gave a concentration at 0.5 h [3, 9] of 11400 ± 1780 ng/g, a concentration at 2 h [3, 9] of 7150 ± 1880 ng/g and a concentration at 4 h [3, 9] of 3890 ± 1470 ng/g. The concentration at 8 h [3, 9] was 1450 ± 1430 ng/g, the concentration at 12 h [3, 9] was 132 ± 76.7 ng/g and the concentration at 0 h [3, 10] was 18.6 ± 11.7 ng/g. For the same compound, the concentration at 0.5 h [3, 10] was 415 ± 435 ng/g, the concentration at 2 h [3, 10] was 275 ± 158 ng/g and the concentration at 4 h [3, 10] was 181 ± 120 ng/g. The concentration at 8 h [3, 10] was 85 ± 73.1 ng/g, the concentration at 12 h [3, 10] was 13.3 ± 6.38 ng/g and the concentration at 0 h [3, 11] was 5.6 ± 1.53 ng/mL. The concentration at 0.25 h ([3]; plasma, 0.25 h, read-out: FM concentration, Plasma) was 628 ± 144 ng/mL and the concentration at 0.5 h [3, 11] was 889 ± 238 ng/mL.
